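Each compound was tested at five concentrations against cells in 96-well plates for 48 hours. GI50 marks 50% less growth. Definition used: TGI = concentration required for complete inhibition of growth.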
Columns and labels:
Assay in all cases: growth of human tumour cells (NCI), 48 h
[1] = test system: A498 renal
[2] = test system: MCF7 breast
[3] = test system: SN12C renal
[4] = test system: ACHN renal
[5] = test system: SR leukemia
[6] = test system: TK-10 renal
[7] = test system: HOP-92 NSCLC
[8] = test system: EKVX NSCLC
[9] = test system: K-562 leukemia
[10] = test system: NCI-H460 lung
[11] = test system: U251 CNS
[12] = test system: RPMI-8226 leukemia
[13] = test system: HT29 colon
[14] = test system: IGROV1 ovarian
[15] = test system: SNB-19 CNS
[16] = test system: A549 NSCLC
[17] = test system: HS 578T breast
[18] = test system: HL-60(TB) leukemia
[19] = test system: SF-539 CNS
[20] = test system: NCI-H23 lung
[21] = test system: LOX IMVI melanoma
[22] = test system: NCI-H522 lung
[23] = test system: DU-145 prostate
[24] = test system: OVCAR-3 ovarian
[25] = test system: M14 melanoma
[26] = test system: HOP-62 NSCLC
[27] = test system: NCI/ADR-RES ovarian
[28] = test system: 786-0 renal
[29] = test system: OVCAR-5 ovarian
[30] = test system: CAKI-1 renal
[31] = test system: MDA-MB-435
[32] = test system: BT-549 breast
[33] = test system: SK-MEL-5 melanoma
[34] = test system: CCRF-CEM leukemia
[35] = test system: OVCAR-8 ovarian
[36] = test system: OVCAR-4 ovarian
[37] = test system: SF-295 CNS
[38] = test system: SNB-75 CNS
[39] = test system: UACC-257 melanoma
[40] = test system: MOLT-4 leukemia
[41] = test system: SW-620 colon
[42] = test system: T-47D breast
[43] = test system: KM12 colon
[44] = test system: HCT-116 colon
[45] = test system: NCI-H226 lung
[46] = test system: COLO 205 colon
[47] = test system: MALME-3M melanoma
[48] = test system: RXF 393 renal
[49] = test system: SK-MEL-28 melanoma
[50] = test system: HCC-2998 colon
[51] = test system: SK-OV-3 ovarian
[52] = test system: SF-268 CNS
[53] = test system: SK-MEL-2 melanoma
[54] = test system: UACC-62 melanoma
[55] = test system: HCT-15 colon
[56] = test system: MDA-MB-231 breast
[57] = test system: PC-3 prostate
[58] = test system: UO-31 renal

## Cc1ccc(C(NC(=O)c2ccccc2)c2ccc3cccnc3c2O)cc1 (stereo not drawn)
[1]
  GI50: 376 nM
  TGI: 7880 nM
[2]
  GI50: 365 nM
  TGI: > 47300 nM
[3]
  GI50: 451 nM
  TGI: 48700 nM
[4]
  GI50: 285 nM
  TGI: 15400 nM
[5]
  GI50: 197 nM
  TGI: > 63500 nM
[6]
  GI50: 413 nM
  TGI: 24100 nM
[7]
  GI50: 145 nM
  TGI: 11700 nM
[8]
  GI50: 357 nM
  TGI: 53500 nM
[9]
  GI50: 349 nM
  TGI: 90000 nM
[10]
  GI50: 260 nM
  TGI: 3080 nM
[11]
  GI50: 249 nM
  TGI: 18400 nM
[12]
  GI50: 323 nM
  TGI: 17800 nM
[13]
  GI50: 536 nM
  TGI: 19400 nM
[14]
  GI50: 352 nM
  TGI: 4950 nM
[15]
  GI50: 492 nM
  TGI: > 100000 nM
[16]
  GI50: 379 nM
  TGI: 12700 nM
[17]
  GI50: 1250 nM
  TGI: > 74700 nM
[18]
  GI50: 288 nM
  TGI: 1000 nM
[19]
  GI50: 318 nM
  TGI: 1910 nM
[20]
  GI50: 417 nM
  TGI: > 32500 nM
[21]
  GI50: 150 nM
[22]
  GI50: 310 nM
  TGI: 2740 nM
[23]
  GI50: 442 nM
  TGI: 41900 nM
[24]
  GI50: 351 nM
  TGI: 18200 nM
[25]
  GI50: 244 nM
  TGI: 2380 nM
[26]
  GI50: 487 nM
  TGI: > 41600 nM
[27]
  GI50: 189 nM
[28]
  GI50: 301 nM
  TGI: 1810 nM
[29]
  GI50: 611 nM
  TGI: > 70400 nM
[30]
  GI50: 328 nM
  TGI: > 50700 nM
[31]
  GI50: 491 nM
  TGI: 23400 nM
[32]
  GI50: 524 nM
  TGI: > 40600 nM
[33]
  GI50: 201 nM
  TGI: 439 nM
[34]
  GI50: 78.3 nM
[35]
  GI50: 306 nM
  TGI: 25100 nM
[36]
  GI50: 275 nM
  TGI: > 52000 nM
[37]
  GI50: 351 nM
  TGI: 14700 nM
[38]
  GI50: 927 nM
  TGI: 60000 nM
[39]
  GI50: 293 nM
  TGI: 2580 nM
[40]
  GI50: 332 nM
  TGI: > 70200 nM
[41]
  GI50: 431 nM
  TGI: > 43500 nM
[42]
  GI50: 478 nM
  TGI: 27700 nM
[43]
  GI50: 380 nM
  TGI: > 43700 nM
[44]
  GI50: 303 nM
  TGI: 13800 nM
[45]
  GI50: 302 nM
  TGI: 3690 nM
[46]
  GI50: 440 nM
  TGI: 18500 nM
[47]
  GI50: 441 nM
  TGI: 12300 nM
[48]
  GI50: 252 nM
  TGI: 1580 nM
[49]
  GI50: 492 nM
  TGI: 41600 nM
[50]
  GI50: 331 nM
  TGI: 18500 nM
[51]
  GI50: 474 nM
  TGI: 30700 nM
[52]
  GI50: 266 nM
  TGI: > 48400 nM
[53]
  GI50: 608 nM
  TGI: 10300 nM
[54]
  GI50: 236 nM
  TGI: 763 nM
[55]
  GI50: 240 nM
  TGI: > 91200 nM
[56]
  GI50: 315 nM
  TGI: 22400 nM
[57]
  GI50: 354 nM
  TGI: 26300 nM
[58]
  GI50: 198 nM
  TGI: 1190 nM

— PubChem BioAssay (NCI)
